# Experimental data published in PubChem BioAssay (NCI).
# Where “and” joins values, the source holds several entries; their conditions need not be identical. Equal entries are not always repeated.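 Following 48 hours of exposure in 96-well plates, responses at five concentrations were used to interpolate endpoints linearly. GI50 is the concentration that inhibits growth by half. TGI: concentration producing complete growth inhibition.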
# What was measured:
# Experiment in all cases: growth of human tumour cells (NCI), 48 h
# COLO 205 colon = system: COLO 205 colon
# MALME-3M melanoma = system: MALME-3M melanoma
# NCI-H23 lung = system: NCI-H23 lung
# HCC-2998 colon = system: HCC-2998 colon
# SK-MEL-2 melanoma = system: SK-MEL-2 melanoma
# SN12C renal = system: SN12C renal
# NCI-H522 lung = system: NCI-H522 lung
# IGROV1 ovarian = system: IGROV1 ovarian
# SW-620 colon = system: SW-620 colon
# UO-31 renal = system: UO-31 renal
Structure (SMILES),TGI (COLO 205 colon),TGI (MALME-3M melanoma),TGI (NCI-H23 lung),TGI (HCC-2998 colon),TGI (SK-MEL-2 melanoma),TGI (SN12C renal),TGI (NCI-H522 lung),TGI (IGROV1 ovarian),TGI (SW-620 colon),TGI (UO-31 renal),GI50 (COLO 205 colon) [µM],GI50 (MALME-3M melanoma) [µM],GI50 (NCI-H23 lung),GI50 (HCC-2998 colon),GI50 (SK-MEL-2 melanoma),GI50 (SN12C renal) [µM],GI50 (NCI-H522 lung) [µM],GI50 (IGROV1 ovarian),GI50 (SW-620 colon),GI50 (UO-31 renal)
CC(C)=CC(O)C/C(C)=C/CC/C(C)=C/CCC1(C)C(CCCO)/C(=C(/C)C=O)CCC1(C)O (stereo not given),> 100 µM,> 100 µM,93 µM,68.2 µM,> 100 µM,76.2 µM,> 100 µM,61.7 µM,> 100 µM,> 100 µM,–,–,–,–,–,–,–,–,–,–
O=C(NCC(=O)N1CC[C@H](NC2CCC(O)(c3ccc(-c4ncccn4)cn3)CC2)C1)c1cccc(C(F)(F)F)c1 (stereo not given in full),> 100 µM,> 100 µM,> 100 µM,> 100 µM,> 100 µM,> 100 µM,> 100 µM,> 100 µM,> 100 µM,> 100 µM,30.2,37.1,52.1 µM,> 100 µM,> 100 µM,> 100,> 100,> 100 µM,> 100 µM,52.3 µM
O=c1[nH]ccc2nc(-c3ccc(CN4CCC(c5nc(-c6ccccn6)n[nH]5)CC4)cc3)c(-c3ccccc3)cc12,> 100 µM,34.7 µM,> 100 µM,> 100 µM,38 µM,> 100 µM,> 64.2 µM,> 100 µM,> 100 µM,> 100 µM,1.54,2.09,42.4 µM,22.2 µM,14.7 µM,32.1,22.2,0.0652 µM,42.3 µM,0.975 µM
CCC[CH2][Sn]1([CH2]CCC)[O]C(=O)c2cccc(OC)c2[O]1,1.78 µM,0.633 µM,1.25 µM,2.15 µM,0.574 µM,1.71 µM,0.179 µM,2.15 µM,0.366 µM,2.07 µM,0.491,0.14,0.265 µM,0.99 µM,0.156 µM,0.47,0.0386,0.755 µM,0.148 µM,0.806 µM
COc1ccc(Cn2cnc3cc(C(=O)Nc4cccc5ccccc45)ccc32)c(OC)c1,0.724 µM,> 100 µM,> 100 µM,14.6 µM,> 100 µM,> 100 µM,–,> 100 µM,> 100 µM,> 100 µM,0.0462,0.0614,0.0898 µM,0.197 µM,0.945 µM,0.0691,0.039,0.0653 µM,0.0334 µM,0.0759 µM
C/C=C(\CCC1NCCc2c1[nH]c1ccccc21)[Si](C)(C)C (stereo not given),27.5 µM and 3.26 µM,7.1 µM and 3.23 µM,20.1 µM and 8.2 µM,9.91 µM and 3.3 µM,9.67 µM and 3.7 µM,11.8 µM and 10.4 µM,27.9 µM and 4.96 µM,16.6 µM and 12.6 µM,9.63 µM and 3.63 µM,22.5 µM and 10.5 µM,–,–,7.89 µM and 1.61 µM,5.5 µM and 1.78 µM,5.28 µM and 1.94 µM,–,–,11.9 µM and 4 µM,5.29 µM and 1.92 µM,8.47 µM and 3.65 µM
Cn1ccnc1C(=O)/C=C/c1ccc(C(=O)Nc2ccccc2O)cc1,5.15 µM,3.81 µM,9.67 µM,4.26 µM,21.8 µM,10.1 µM,5.47 µM,4.88 µM,4.12 µM,2.5 µM,2.51,1.63,2.91 µM,2.29 µM,5.9 µM,2.79,1.86,1.97 µM,1.62 µM,1.24 µM
O=C1C2C(C(=O)N1c1ccccc1)C1(c3ccccc3)OC2(c2ccccc2)c2ccccc21 (stereo not given),> 100 µM,> 100 µM,> 100 µM,> 100 µM,> 100 µM,> 100 µM,> 100 µM,> 100 µM,> 100 µM,> 100 µM,–,–,–,–,–,–,–,–,–,–
